Consider 45 compounds from patent US11084795B2, “CFTR regulators and methods of use thereof” (The Regents of the University of California, priority 2015, dated 2021).

One may read the EC50 as the midpoint of the concentration-response curve.

In the assay the target is human wildtype CFTR (Homo sapiens, UniProt P13569). Put plainly: Fluorescence plate reader assay of iodide influx in FRT cells co-expressing CFTR and YFP halide sensor.
[1] abbreviates: read-out: EC50, variation in the quinoxalinone core, plate reader assay.
[2] abbreviates: read-out: EC50, variation in the N1-substituent, plate reader assay.
The mark [3] stands for this setting: read-out: EC50, variation in the 3-aryl ring, plate reader assay.

Each structure is given as a SMILES string. Like-named read-outs stand apart in the source and are kept apart here.

human wildtype CFTR, sequence (P13569 whole entry): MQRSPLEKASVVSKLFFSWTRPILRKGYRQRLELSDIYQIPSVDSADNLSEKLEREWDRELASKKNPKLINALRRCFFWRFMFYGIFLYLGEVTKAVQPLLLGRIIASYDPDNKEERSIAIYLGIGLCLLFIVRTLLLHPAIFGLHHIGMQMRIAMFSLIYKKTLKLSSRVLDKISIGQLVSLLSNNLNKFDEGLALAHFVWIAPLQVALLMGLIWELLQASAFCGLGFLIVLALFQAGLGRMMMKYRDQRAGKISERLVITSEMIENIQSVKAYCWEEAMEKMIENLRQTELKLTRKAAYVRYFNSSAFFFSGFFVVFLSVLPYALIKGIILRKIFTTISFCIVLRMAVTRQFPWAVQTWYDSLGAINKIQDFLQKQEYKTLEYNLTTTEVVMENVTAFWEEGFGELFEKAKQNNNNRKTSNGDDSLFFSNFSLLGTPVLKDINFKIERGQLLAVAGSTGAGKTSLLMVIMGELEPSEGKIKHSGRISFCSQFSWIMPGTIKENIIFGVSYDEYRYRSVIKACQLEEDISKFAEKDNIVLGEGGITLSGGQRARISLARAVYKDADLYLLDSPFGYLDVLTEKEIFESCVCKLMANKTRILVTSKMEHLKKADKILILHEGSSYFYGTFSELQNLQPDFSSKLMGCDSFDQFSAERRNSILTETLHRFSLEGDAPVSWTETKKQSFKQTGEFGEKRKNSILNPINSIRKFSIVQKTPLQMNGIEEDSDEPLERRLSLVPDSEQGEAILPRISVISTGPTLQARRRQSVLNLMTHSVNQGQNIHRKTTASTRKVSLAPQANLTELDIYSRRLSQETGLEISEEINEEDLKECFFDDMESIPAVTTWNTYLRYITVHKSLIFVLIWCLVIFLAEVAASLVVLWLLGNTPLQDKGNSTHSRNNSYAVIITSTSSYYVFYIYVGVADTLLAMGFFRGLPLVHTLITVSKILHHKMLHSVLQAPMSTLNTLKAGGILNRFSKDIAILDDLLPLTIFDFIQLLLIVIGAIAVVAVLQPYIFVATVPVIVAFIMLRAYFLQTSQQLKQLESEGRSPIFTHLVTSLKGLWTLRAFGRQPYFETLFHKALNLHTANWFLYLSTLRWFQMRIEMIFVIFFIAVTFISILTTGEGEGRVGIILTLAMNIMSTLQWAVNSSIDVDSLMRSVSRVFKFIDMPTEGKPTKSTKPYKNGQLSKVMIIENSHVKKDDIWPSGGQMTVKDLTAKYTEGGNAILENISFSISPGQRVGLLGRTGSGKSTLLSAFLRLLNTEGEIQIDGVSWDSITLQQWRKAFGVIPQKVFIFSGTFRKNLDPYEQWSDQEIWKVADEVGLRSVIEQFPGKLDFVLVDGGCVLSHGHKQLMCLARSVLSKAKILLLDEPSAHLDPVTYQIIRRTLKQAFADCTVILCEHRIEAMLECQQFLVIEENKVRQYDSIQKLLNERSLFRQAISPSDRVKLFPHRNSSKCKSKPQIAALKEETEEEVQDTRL

Regarding `CC(=O)Nc1ccc([N+](=O)[O-])cc1-c1nc2ccccc2n(Cc2ccccc2)c1=O` [CFTRact-J109, N-(2-(4-Benzyl-3-oxo-3,4-dihydroquinoxalin-2-yl)-4-nitrophenyl)-acetamide], the EC50 is 1500 nM.

In turn, `Cc1ccc2c(c1)nc(-c1cc(F)ccc1N)c(=O)n2Cc1ccccc1` [CFTRact-J140, 3-(2-Amino-5-fluorophenyl)-1-benzyl-6-methylquinoxalin-2(1H)-one] registered an EC50 of 700 nM.

On to `O=C(O)c1ccc([N+](=O)[O-])c(-c2nc3ccccc3n(Cc3ccccc3)c2=O)c1` [Compound 1b, 3-(4-Benzyl-3-oxo-3,4-dihydroquinoxalin-2-yl)-4-nitrobenzoic acid], for which the EC50 is greater than 10000 nM.

For the compound `Nc1ccc(C(=O)O)cc1-c1nc2ccccc2n(Cc2ccccc2)c1=O` [Compound 1k, 4-Amino-3-(4-benzyl-3-oxo-3,4-dihydroquinoxalin-2-yl)benzoic acid], the EC50 is greater than 10000 nM.

On to `O=c1c(-c2cccc([N+](=O)[O-])c2)nc2cc(Cl)ccc2n1Cc1ccccc1` [Compound 2b, 1-Benzyl-6-chloro-3-(3-nitrophenyl)quinoxalin-2(1H)-one], for which the EC50 under setting [1] was found to be 70 nM.

Consider `Nc1ccc(I)cc1-c1nc2ccccc2n(Cc2ccccc2[N+](=O)[O-])c1=O` [CFTRact-J143, 3-(2-Amino-5-iodophenyl)-1-(2-nitrobenzyl)quinoxalin-2(1H)-one], for which the EC50 was greater than 25000 nM.

In the case of `O=c1c(-c2cccc([N+](=O)[O-])c2)nc2ccccc2n1Cc1ccc2ccccc2c1` [Compound 3g, 1-(Naphthalen-2-ylmethyl)-3-(3-nitrophenyl)quinoxalin-2(1H)-one], the EC50 under setting [2] is 4300 nM.

With `O=c1c(-c2cccc([N+](=O)[O-])c2)nc2cc(Br)ccc2n1Cc1ccccc1` [Compound 2f, 1-Benzyl-6-bromo-3-(3-nitrophenyl)quinoxalin-2(1H)-one], the EC50 under setting [1] came to 63 nM.

`O=c1c(-c2cccc([N+](=O)[O-])c2)nc2ccccc2n1Cc1ccccn1` [Compound 3h, 3-(3-Nitrophenyl)-1-(pyridin-2-ylmethyl)quinoxalin-2(1H)-one]: the EC50 under setting [2] was 52 nM.

Regarding `Cc1ccc2c(c1)nc(-c1cc(I)ccc1N)c(=O)n2Cc1ccccc1` [CFTRact-J141, 3-(2-Amino-5-iodophenyl)-1-benzyl-6-methylquinoxalin-2(1H)-one], the EC50 came out at 470 nM.

Compound `N#Cc1ccccc1Cn1c(=O)c(-c2cc(I)ccc2N)nc2ccccc21` [CFTRact-J144, 3-(2-Amino-5-iodophenyl)-1-(2-cyanobenzyl)quinoxalin-2(1H)-one] gave an EC50 greater than 25000 nM.

Consider `Cn1c(=O)c(-c2cccc([N+](=O)[O-])c2)nc2ccccc21` [Compound 3b, 1-Methyl-3-(3-nitrophenyl)quinoxalin-2(1H)-one], for which the EC50 is greater than 10000 nM.

`O=c1c(-c2cccc([N+](=O)[O-])c2)nc2cc(Cl)c(Cl)cc2n1Cc1ccccc1` [Compound 2d, 1-Benzyl-6,7-dichloro-3-(3-nitrophenyl)quinoxalin-2(1H)-one] gave a concentration giving a half-maximal response (EC50) greater than 10000 nM.

Regarding `O=c1[nH]c2ccccc2nc1-c1cccc([N+](=O)[O-])c1` [Compound 3a, 3-(3-Nitrophenyl)quinoxalin-2(1H)-one], the EC50 is greater than 10000 nM.

With `CCCn1c(=O)c(-c2cccc([N+](=O)[O-])c2)nc2ccccc21` [Compound 3d, 1-Propyl-3-(3-nitrophenyl)quinoxalin-2(1H)-one], the EC50 under setting [2] came to 177 nM.

`Nc1ccc([N+](=O)[O-])cc1-c1nc2ccccc2n(Cc2ccccc2Br)c1=O` [CFTRact-J104, 3-(2-Amino-5-nitrophenyl)-1-(2-bromobenzyl)quinoxalin-2(1H)-one] gave a 50% effective concentration (EC50) of 7300 nM.

Compound `Nc1ccc([N+](=O)[O-])cc1-c1nc2cccc3c2n(c1=O)C(c1ccccc1)CO3` (stereo not drawn) [Compound 20, 6-(2-Amino-5-nitrophenyl)-3-phenyl-2,3-dihydro-5H-[1,4]oxazino[4,3,2-de]quinoxalin-5-one] registered an EC50 greater than 10000 nM.

`Nc1ccc([N+](=O)[O-])cc1-c1nc2cc(Br)ccc2n(Cc2ccccc2)c1=O` [CFTRact-J136, 3-(2-Amino-5-nitrophenyl)-1-benzyl-6-bromoquinoxalin-2(1H)-one] displayed an EC50 of 260 nM.

`Cc1cccc2nc(-c3cccc([N+](=O)[O-])c3)c(=O)n(Cc3ccccc3)c12` [Compound 2h, 1-Benzyl-8-methyl-3-(3-nitrophenyl)quinoxalin-2(1H)-one]: the EC50 is greater than 10000 nM.

For `COC(=O)c1ccc(N)c(-c2nc3ccccc3n(Cc3ccccc3)c2=O)c1` [Compound 1j, Methyl 4-amino-3-(4-benzyl-3-oxo-3,4-dihydroquinoxalin-2-yl)benzoate], a half-maximal response (EC50) required 1000 nM. Moreover, under setting [3], the EC50 is 550 nM.

For `O=c1c(-c2cccc(Br)c2)nc2ccccc2n1Cc1ccccc1` [Compound 1g, 1-Benzyl-3-(3-bromophenyl)quinoxalin-2(1H)-one], under setting [3], the EC50 worked out at 330 nM.

In turn, `Nc1ccc(Br)cc1-c1nc2ccccc2n(Cc2ccccc2)c1=O` [CFTRact-J134, 3-(2-Amino-5-bromophenyl)-1-benzylquinoxalin-2(1H)-one] showed an EC50 of 310 nM.

On to `Nc1ccc([N+](=O)[O-])cc1-c1nc2cc(F)ccc2n(Cc2ccccc2)c1=O` [CFTRact-J105, 3-(2-Amino-5-nitrophenyl)-1-benzyl-6-fluoroquinoxalin-2(1H)-one], for which the midpoint of the response, the EC50, lay at 530 nM.

In the case of `O=c1c(-c2ccc(F)c([N+](=O)[O-])c2)nc2ccccc2n1Cc1ccccc1` [Compound 1i, 1-Benzyl-3-(4-fluoro-3-nitrophenyl)quinoxalin-2(1H)-one], the EC50 under setting [3] was 690 nM.

Consider `O=c1c(-c2cccc([N+](=O)[O-])c2)nc2cc(F)c(F)cc2n1Cc1ccccc1` [Compound 2g, 1-Benzyl-6,7-difluoro-3-(3-nitrophenyl)quinoxalin-2(1H)-one], for which the EC50 was greater than 10000 nM.

For the compound `Cc1cc2nc(-c3cccc([N+](=O)[O-])c3)c(=O)n(Cc3ccccc3)c2cc1C` [Compound 2i, 1-Benzyl-6,7-dimethyl-3-(3-nitrophenyl)quinoxalin-2(1H)-one], the EC50 was greater than 10000 nM.

As to `O=c1c(-c2ccc3nonc3c2)nc2ccccc2n1Cc1ccccc1` [Compound 1m, 3-(Benzo[c][1,2,5]oxadiazol-5-yl)-1-benzylquinoxalin-2(1H)-one], under setting [3], the EC50 was determined as 18 nM.

For the compound `CC(=O)Nc1ccc(C)cc1-c1nc2ccccc2n(Cc2ccccc2)c1=O` [CFTRact-J060], the EC50 was greater than 25000 nM.

The compound `Nc1ccc([N+](=O)[O-])cc1-c1nc2ccccc2n(Cc2ccc(Br)cc2)c1=O` [CFTRact-J102, 3-(2-Amino-5-nitrophenyl)-1-(4-bromobenzyl)quinoxalin-2(1H)-one] gave an EC50 greater than 25000 nM.

Consider `O=c1c(-c2ccccc2)nc2ccccc2n1Cc1ccccc1` [Compound 1h, 1-Benzyl-3-phenylquinoxalin-2(1H)-one], for which the EC50 under setting [3] worked out at 5000 nM.

For `C=CCn1c(=O)c(-c2cccc([N+](=O)[O-])c2)nc2ccccc21` [Compound 3e, 1-Allyl-3-(3-nitrophenyl)quinoxalin-2(1H)-one], under setting [2], the EC50 came to 55 nM.

The compound `Nc1ccc([N+](=O)[O-])cc1-c1nc2ccccc2n(Cc2cccc(Br)c2)c1=O` [CFTRact-J103, 3-(2-Amino-5-nitrophenyl)-1-(3-bromobenzyl)quinoxalin-2(1H)-one] came in with an EC50 of 1200 nM.

`Nc1ccc(F)cc1-c1nc2ccccc2n(Cc2ccccc2)c1=O` [CFTRact-J133, 3-(2-Amino-5-fluorophenyl)-1-benzylquinoxalin-2(1H)-one]: a half-maximal response (EC50) required 790 nM.

With `O=c1c(-c2cc(Br)ccc2NCc2ccccc2)nc2ccccc2n1Cc1ccccc1` [CFTRact-J056], the “CFTR activity of commercial analogs relative to CFTRact-J027” value is “greatly reduced activity” and the EC50 is roughly 15000 nM.

With `CC(=O)Nc1ccccc1-c1nc2ccccc2n(Cc2cccc(Br)c2)c1=O` [CFTRact-J059], the EC50 was roughly 19000 nM.

`CC(=O)Nc1ccccc1-c1nc2ccccc2n(Cc2ccccc2)c1=O` [CFTRact-J057]: the “CFTR activity of commercial analogs relative to CFTRact-J027” value was “greatly reduced activity” and the EC50 was roughly 15000 nM.

In the case of `O=c1c(-c2ccc([N+](=O)[O-])cc2)nc2ccccc2n1Cc1ccccc1` [Compound 1e, 1-Benzyl-3-(4-nitrophenyl)quinoxalin-2(1H)-one], the concentration giving a half-maximal response (EC50) under setting [3] came to 1000 nM.

As for `Cn1c(=O)c(-c2cc([N+](=O)[O-])ccc2N)nc2ccccc21` [CFTRact-J052], the “CFTR activity of commercial analogs relative to CFTRact-J027” value is “greatly reduced activity”.

As to `Nc1cccc(Br)c1-c1nc2ccccc2n(Cc2ccccc2)c1=O` [CFTRact-J142, 3-(2-Amino-6-bromophenyl)-1-benzylquinoxalin-2(1H)-one], the EC50 was found to be 1500 nM.

Turning to `CCn1c(=O)c(-c2cccc([N+](=O)[O-])c2)nc2ccccc21` [Compound 3c, 1-Ethyl-3-(3-nitrophenyl)quinoxalin-2(1H)-one], the EC50 under setting [2] was 65 nM.

As for `O=c1c(-c2cccc([N+](=O)[O-])c2)nc2c(Cl)cccc2n1Cc1ccccc1` [Compound 2c, 1-Benzyl-5-chloro-3-(3-nitrophenyl)quinoxalin-2(1H)-one], the EC50 under setting [1] was 110 nM.

With `O=c1c(-c2cccc([N+](=O)[O-])c2)nc2ccc(Br)cc2n1Cc1ccccc1` [Compound 2e, 1-Benzyl-7-bromo-3-(3-nitrophenyl)quinoxalin-2(1H)-one], the “EC50, variation in the quinoxalinone core” value (plate reader assay) is given as “EC50 = Inactive”.

On to `O=c1c(-c2cccc([N+](=O)[O-])c2)nc2ccccc2n1Cc1cccc2ccccc12` [Compound 3f, 1-(Naphthalen-1-ylmethyl)-3-(3-nitrophenyl)quinoxalin-2(1H)-one], for which, where the note is “plate reader assay”, the “EC50, variation in the N1-substituent” value is “EC50 = Inactive”.

As for `O=c1c(-c2cccc([N+](=O)[O-])c2)nc2ccc(Cl)cc2n1Cc1ccccc1` [Compound 2a, 1-Benzyl-7-chloro-3-(3-nitrophenyl)quinoxalin-2(1H)-one], the EC50 under setting [1] is 760 nM.

Turning to `O=c1c(-c2cccc([N+](=O)[O-])c2)nc2ccccc2n1Cc1ccco1` [Compound 3i, 1-(Furan-2-ylmethyl)-3-(3-nitrophenyl)quinoxalin-2(1H)-one], under setting [2], the EC50 was determined as 20 nM.
